Where two headings read alike, the source gives them in different places.
System: Aedes aegypti
Experiment: Warm Body assay, mosquito landings on the baited warm body
Assay type: in vivo
Conditions: Aedes aegypti, read-out: Percentage of repellence of mosquitoes landing on the warm body
Procedure: The controlling effect according to the present invention was assessed using an adapted Warm Body assay as defined in Kröber T, Kessler S, Frei J, Bourquin M, Guerin P M. 2010. J Am Mosq Control Assoc. 26:381-386. In this in-vitro assay the number of mosquito landing on a warm body, simulating an attractive host treated with the tested stimuli, was measured in order to assess the repellence effect.
The published protocol has been adapted as the switch from Anopheles gambiae to Ae. aegypti led to a decrease of mosquitoes placed in the tested cage due to the size difference (i.e. 30 mosquitoes instead of 50) and to an increase of lighting since Ae. aegypti is a diurnal mosquitoes (i.e. 150 lux instead of 4 lux).
On the sandblasted glass Petri dish covering the warm body (28.3 cm^2), 100 μL of the compounds diluted at different concentrations in ethanol was applied. The number of mosquito landing on the warm body was counted for each stimulus. Number of landings on pure ethanol (solvent) control treatment was used to normalize the data and calculate the percentage of repellence.

[1] = more complex lactones (types A, B, C), 0.016 mg/mL
[2] = more complex lactones (types A, B, C), 0.4 mg/mL
[3] = more complex lactones (types A, B, C), 10 mg/mL
[4] = γ-lactones, 0.016 mg/mL in ethanol
[5] = γ-lactones, 0.4 mg/mL in ethanol
[6] = γ-lactones, 10 mg/mL in ethanol

CCCCCC1OC(=O)CC1C (stereo not shown) [4-methyl-5-pentyloxolan-2-one]
pest or weed control at 16 µg/mL [1]: 36%
pest or weed control at 400 µg/mL [2]: 72%
pest or weed control at 10000 µg/mL [3]: 100%

CCCCCCC1CCCC(=O)O1 (stereo not shown) [6-hexyloxan-2-one]
pest or weed control at 16 µg/mL (δ-lactones, 0.016 mg/mL): 0%
pest or weed control at 400 µg/mL (δ-lactones, 0.4 mg/mL): 76%
pest or weed control at 10000 µg/mL (δ-lactones, 10 mg/mL): 91%

CCCCC=CCCC1CCC(=O)O1 (stereo not shown) [5-oct-3-enyloxolan-2-one]
pest or weed control at 16 µg/mL [4]: 31%
pest or weed control at 400 µg/mL [5]: 76%
pest or weed control at 10000 µg/mL [6]: 92%

C=C/C=C\C1C(=O)OC1CCCCC (stereo not shown) [(Z)-3-buta-1,3-dienyl-4-pentyloxetan-2-one]
pest or weed control at 16 µg/mL (β- and ε-lactones, 0.016 mg/mL): 64%
pest or weed control at 400 µg/mL (β- and ε-lactones, 0.4 mg/mL): 87%
pest or weed control at 10000 µg/mL (β- and ε-lactones, 10 mg/mL): 95%

CC/C=C\CCCCC1CCC(=O)O1 (stereo not shown) [5-[(Z)-oct-5-enyl]oxolan-2-one]
pest or weed control at 16 µg/mL [4]: 0%
pest or weed control at 400 µg/mL [5]: 75%
pest or weed control at 10000 µg/mL [6]: 100%

CC/C=C\CC/C=C/C1CCC(=O)O1 (stereo not shown) [5-[(1E,5Z)-octa-1,5-dienyl]oxolan-2-one]
pest or weed control at 16 µg/mL [4]: 52%
pest or weed control at 400 µg/mL [5]: 65%
pest or weed control at 10000 µg/mL [6]: 97%

CCC=CC[C@H]1CCCC(=O)O1 [(6R)-6-pent-2-enyloxan-2-one]
pest or weed control at 16 µg/mL (δ-lactones, 0.016 mg/mL): 78%
pest or weed control at 400 µg/mL (δ-lactones, 0.4 mg/mL): 100%
pest or weed control at 10000 µg/mL (δ-lactones, 10 mg/mL): 98%

CCC=CC[C@@H]1CCCC(=O)O1 [(6S)-6-pent-2-enyloxan-2-one]
pest or weed control at 16 µg/mL (δ-lactones, 0.016 mg/mL): 73%
pest or weed control at 400 µg/mL (δ-lactones, 0.4 mg/mL): 96%
pest or weed control at 10000 µg/mL (δ-lactones, 10 mg/mL): 96%

CC(C)(C)C1CCCCC(=O)O1 (stereo not shown) [7-tert-butyloxepan-2-one]
pest or weed control at 16 µg/mL (β- and ε-lactones, 0.016 mg/mL): 0%
pest or weed control at 400 µg/mL (β- and ε-lactones, 0.4 mg/mL): 0%
pest or weed control at 10000 µg/mL (β- and ε-lactones, 10 mg/mL): 66%

C=CC=CC1C(=O)OC1CCCCC (stereo not shown) [3-buta-1,3-dienyl-4-pentyloxetan-2-one]
pest or weed control at 400 µg/mL (β- and ε-lactones, 0.4 mg/mL): > 80%

CCCCC=CC1CCC(=O)O1 (stereo not shown) [5-hex-1-enyloxolan-2-one]
pest or weed control at 16 µg/mL [4]: 46%
pest or weed control at 400 µg/mL [5]: 87%
pest or weed control at 10000 µg/mL [6]: 95%

CCCC=CC1CCC(=O)O1 (stereo not shown) [5-pent-1-enyloxolan-2-one]
pest or weed control at 16 µg/mL [4]: 52%
pest or weed control at 400 µg/mL [5]: 79%
pest or weed control at 10000 µg/mL [6]: 100%

O=C1CCC2(CCCCC2)O1 [1-oxaspiro[4.5]decan-2-one]
pest or weed control at 16 µg/mL [1]: 54%
pest or weed control at 400 µg/mL [2]: 79%
pest or weed control at 10000 µg/mL [3]: 100%

CCC=CCCCCCCC1CCC(=O)O1 (stereo not shown) [5-dec-7-enyloxolan-2-one]
pest or weed control at 16 µg/mL [4]: 17%
pest or weed control at 400 µg/mL [5]: 47%
pest or weed control at 10000 µg/mL [6]: 85%

O=C1CCC2CCCCC2O1 (stereo not shown) [3,4,4a,5,6,7,8,8a-octahydrochromen-2-one]
pest or weed control at 16 µg/mL [1]: 35%
pest or weed control at 400 µg/mL [2]: 90%
pest or weed control at 10000 µg/mL [3]: 100%

CCCCCC1CCC(=O)O1 (stereo not shown) [5-pentyloxolan-2-one]
pest or weed control at 16 µg/mL [4]: 9%
pest or weed control at 400 µg/mL [5]: 56%
pest or weed control at 10000 µg/mL [6]: 99%

CC1CCC(=O)O1 (stereo not shown) [5-methyloxolan-2-one]
pest or weed control at 16 µg/mL [4]: 0%
pest or weed control at 400 µg/mL [5]: 43%
pest or weed control at 10000 µg/mL [6]: 2%

CCCCCCCCCCC1CCC(=O)O1 (stereo not shown) [5-decyloxolan-2-one]
pest or weed control at 16 µg/mL [4]: 2%
pest or weed control at 400 µg/mL [5]: 14%
pest or weed control at 10000 µg/mL [6]: 60%

CCCCCC1CCCC(=O)O1 (stereo not shown) [6-pentyloxan-2-one]
pest or weed control at 16 µg/mL (δ-lactones, 0.016 mg/mL): 0%
pest or weed control at 400 µg/mL (δ-lactones, 0.4 mg/mL): 91%
pest or weed control at 10000 µg/mL (δ-lactones, 10 mg/mL): 98%

CC1(C)CC=CC2(C)OC(=O)CC12 (stereo not shown) [4,4,7a-trimethyl-3a,5-dihydro-3H-1-benzofuran-2-one]
pest or weed control at 16 µg/mL [1]: 83%
pest or weed control at 400 µg/mL [2]: 92%
pest or weed control at 10000 µg/mL [3]: 100%

CCCCCCCCC1CCC(=O)O1 (stereo not shown) [5-octyloxolan-2-one]
pest or weed control at 16 µg/mL [4]: 12%
pest or weed control at 400 µg/mL [5]: 52%
pest or weed control at 10000 µg/mL [6]: 45%

C=CCCC1CCCCC(=O)O1 (stereo not shown) [7-but-3-enyloxepan-2-one]
pest or weed control at 16 µg/mL (β- and ε-lactones, 0.016 mg/mL): 43%
pest or weed control at 400 µg/mL (β- and ε-lactones, 0.4 mg/mL): 75%
pest or weed control at 10000 µg/mL (β- and ε-lactones, 10 mg/mL): 99%

CCCCCCC1=COC(=O)CC1 [5-hexyl-3,4-dihydro-2H-pyran-2-one]
pest or weed control at 16 µg/mL [1]: 11%
pest or weed control at 400 µg/mL [2]: 75%
pest or weed control at 10000 µg/mL [3]: 98%

Reference: US20260231939A1, “ARTHROPOD CONTROL COMPOSITIONS” (Firmenich SA, priority 2022, published 2026)
